Molecules are shown by their SMILES.

We go through three compounds from patent publication EP0936918B1, “COMBINATION THERAPY FOR TREATMENT OF ARTHRITIC DISEASES” (BRITISH BIOTECH PHARMACEUTICALS LIMITED, priority 1996, dated 1998).

The test system of data set [1] is adjuvant-induced arthritis. The experiment in a line: Rat adjuvant-induced arthritis model. The format is in vivo, male Lewis rat. Here is the method: Mean of 10 readings was recorded.
Drugs were formulated fresh for each administration.

Data set [2] is described as follows: Ex vivo bioassay of blood concentration after oral administration (fibroblast collagenase / 14C collagen read-out). Further details: species or system male Lewis rats. The note with it: 10mg/kg oral, suspension in PBS/Tween, with versus without CyA (0.3mg/kg); 0.5 to 24 hrs, n=6. Here is the method:
Compound 1(10mg/kg)±CyA (0.3mg/kg) [in PBS/0.01% Tween 80™] was administered to healthy male Lewis rats (as above). Blood samples (0.5ml into a syringe containing 0.1 ml acid citrate dextroset as anticoagulant) were removed from the ventro-lateral tail vein of the halothane anaestetised rat at t= prebleed, 0.5, 1, 2, 6 and 24 hrs. 3mls methanol was added to each blood sample, mixed and centrifuged at 3000 r.p.m. for 15 minutes (using Beckman GPKR centrifuge). 2.0ml of the methanol supematant was removed and evaporated dry. The pellet was redisolved in 200µl DMSO (dimethylsulphoxide). An aliquot of the solubilised pellet was assayed against fibroblast collagenase using ^14C collagen as substrate, as follows: 15µl fibroblast collagenase at suitable dilution. 100µl collagenase assay buffer* 10µl solubilised pellet 75µl ddH2O 100µl ^14C collagen † Acid citrate dextrose, pH4.5 (13.65g citric acid, 25g tri-sodium citrate & 20g d-glucose per litre of water) * (50mM Tris (pH 7.4), 5mM CaCl2, 0.05% Brij, 0.02% NaN3)
Samples were incubated overnight at 37°C and undigested substrate removed by centrifugation at 11,600 r.p.m. for 15 mins (using Heraeus Biofuge 15). […]
A calibration curve for the test compound of interest was run alongside the blood samples. The concentration of the test compound in the blood was then calculated from the calibration curve.

The conditions of data set [3]: Twentyman 1992; cited from earlier work.

Consider `C=CC[C@H](C(=O)NO)[C@@H](CC(C)C)C(=O)N[C@H](C(=O)NC)C(C)(C)C` [Compound 1, 3R-(2,2-Dimethyl-1S-methylcarbamoyl-propylcarbamoyl)-5-methyl-2S-2-propenyl-hexanohydroxamic acid], for which the “reducing the paw volume (swelling)” value in data set [1] (Compound 1 at doses at or below 10mg/kg, po, bid (data not shown)) is “ineffective”. Further, in data set [1] (given alone, po, bid: Compound 1 (10mg/ml), Cyclosporin A (0.3mg/ml)), the effect on arthritis entry is “very little or no effect”. In data set [2], the “blood concentration of Compound 1” value is “equivalent”.
`CNC(=O)[C@H](Cc1ccccc1)NC(=O)[C@H](CC(C)C)[C@H](CSc1cccs1)C(=O)NO` [Compound 2, [4-(N-Hydroxyamino)-2R-isobutyl-3S-(thiophenylthiomethyl)succinyl]-L-phenylalanine-N-methylamide]: in data set [1] (Compound 2 at 5mg/kg ip, bid, with cyclosporin A at 0.3mg/kg ip), the “synergy with cyclosporin A” value is “act in synergy”.
In the case of `C/C=C/C[C@@H](C)C(=O)[C@H]1C(=O)N[C@@H](C(C)C)C(=O)N(C)CC(=O)N(C)[C@@H](CC(C)C)C(=O)N[C@@H](C(C)C)C(=O)N(C)[C@@H](CC(C)C)C(=O)N[C@@H](C)C(=O)N[C@H](C)C(=O)N(C)[C@@H](CC(C)C)C(=O)N(C)[C@@H](CC(C)C)C(=O)N(C)[C@@H](C(C)C)C(=O)N1C` [PSC-833], the “potency relative to CyA” value in data set [3] is given as “approximately 10 fold”.
